Data: PubChem BioAssay (NCI)
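Five concentrations, 48 hours, 96-well plates. TGI: total growth inhibition.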

Legend:
Assay in all cases: DTP human tumour cell line panel, 48 h
HS 578T breast = test system: HS 578T breast
MDA-MB-435 = test system: MDA-MB-435
DU-145 prostate = test system: DU-145 prostate
M14 melanoma = test system: M14 melanoma
OVCAR-4 ovarian = test system: OVCAR-4 ovarian
CAKI-1 renal = test system: CAKI-1 renal
SK-MEL-5 melanoma = test system: SK-MEL-5 melanoma
MDA-N = test system: MDA-N
HOP-62 NSCLC = test system: HOP-62 NSCLC
RPMI-8226 leukemia = test system: RPMI-8226 leukemia
IGROV1 ovarian = test system: IGROV1 ovarian
PC-3 prostate = test system: PC-3 prostate
K-562 leukemia = test system: K-562 leukemia
U251 CNS = test system: U251 CNS
HCT-116 colon = test system: HCT-116 colon
MALME-3M melanoma = test system: MALME-3M melanoma
UO-31 renal = test system: UO-31 renal
SF-539 CNS = test system: SF-539 CNS
NCI/ADR-RES ovarian = test system: NCI/ADR-RES ovarian

| Structure (SMILES) | TGI (HS 578T breast) [µM] | TGI (MDA-MB-435) [µM] | TGI (DU-145 prostate) [µM] | TGI (M14 melanoma) [µM] | TGI (OVCAR-4 ovarian) [µM] | TGI (CAKI-1 renal) [µM] | TGI (SK-MEL-5 melanoma) [µM] | TGI (MDA-N) [µM] | TGI (HOP-62 NSCLC) [µM] | TGI (RPMI-8226 leukemia) [µM] | TGI (IGROV1 ovarian) [µM] | TGI (PC-3 prostate) [µM] | TGI (K-562 leukemia) [µM] | TGI (U251 CNS) [µM] | TGI (HCT-116 colon) [µM] | TGI (MALME-3M melanoma) [µM] | TGI (UO-31 renal) [µM] | TGI (SF-539 CNS) [µM] | TGI (NCI/ADR-RES ovarian) [µM] |
| --- | --- | --- | --- | --- | --- | --- | --- | --- | --- | --- | --- | --- | --- | --- | --- | --- | --- | --- | --- |
| N#Cc1nc(C2SCCCS2)oc1N | > 100 | > 100 | > 100 | > 100 | > 100 | > 100 | > 100 | > 100 | > 100 | > 100 | > 100 | > 100 | > 100 | > 100 | > 100 | – | – | – | – |
| COc1cc2c(cc1OC)C1(c3ccccc3)ON=C(c3ccccc3)N1CS2 (stereo not given) | – | – | – | > 100 | > 100 | > 100 | > 100 | – | > 100 | > 100 | > 100 | – | > 100 | > 100 | > 100 | > 100 | > 100 | > 100 | – |
| CC(C(=O)N1C(=O)N(C(=O)[C@H](C)C(O)c2ccccc2)[C@H](c2ccccc2)[C@H]1c1ccccc1)[C@@H](O)c1ccccc1 (stereo not given in full) | – | 54.3 | > 100 | 61.7 | > 100 | 72.4 | 28.1 | 60.7 | > 100 | – | 64.9 | 83.6 | > 100 | > 100 | > 100 | – | > 100 | 81.9 | – |
| Cc1cc(S(=O)(=O)Nc2nc(N)nc(N(C)C)n2)c(SC(C(=O)O)c2ccccc2)cc1Cl (stereo not given) | > 10 | – | > 10 | > 10 | > 10 | > 10 | > 10 | > 10 | > 10 | > 10 | > 10 | > 10 | > 10 | > 10 | > 10 | > 10 | > 10 | > 10 | > 10 |
| CC1=C2c3ccccc3N(S(=O)(=O)c3ccccc3)[C@H]2[C@H](C(=O)N2C3CC4CC[C@@]3(CS2(=O)=O)C4(C)C)CC1 (stereo not given in full) | > 100 | > 100 | > 100 | > 100 | > 100 | > 100 | 91.3 | – | > 100 | 7.05 | > 100 | > 100 | > 100 | > 100 | > 100 | > 100 | 54 | > 100 | > 100 |
| Cc1ccc(Nc2cc(=O)[nH]c(=O)[nH]2)cc1CS | > 100 | > 100 | – | > 100 | > 100 | > 100 | > 100 | > 100 | > 100 | > 100 | > 100 | > 100 | > 100 | > 100 | > 100 | > 100 | > 100 | > 100 | > 100 |
| CCCCC1=CC1(C#N)[N+](=O)[O-] (stereo not given) | > 100 | > 100 | > 100 | > 100 | > 100 | > 100 | > 100 | – | > 100 | > 100 | > 100 | > 100 | 66.6 | > 100 | > 100 | > 100 | > 100 | > 100 | > 100 |
